Toxic doses and inconclusive results are not listed. Rule for the calls: active = survival T/C of 150% or more; inactive = T/C below 125% in these data.
System: CD2F1 mice, L1210 leukemia ip, survival T/C
Assay: NCI In Vivo Anticancer Drug Screen. Data for tumor model L1210 Leukemia (intraperitoneal) in CD2F1 (CDF1) mice
Details: endpoint: mean survival time, higher = longer survival
Outline: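 Antitumor effect is scored in animals hosting a serially transplanted tumor. Values compare compound-dosed animals against vehicle-only controls as a simple quotient.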

[1] = dose: 100.0 mg/kg/injection, schedule: Q01DX001 (ip), vehicle: saline
[2] = dose: 100.0 mg/kg/injection, schedule: Q04DX003 (ip), vehicle: saline
[3] = dose: 200.0 mg/kg/injection, schedule: Q01DX001 (ip), vehicle: saline
[4] = dose: 200.0 mg/kg/injection, schedule: Q04DX003 (ip), vehicle: saline
[5] = dose: 400.0 mg/kg/injection, schedule: Q01DX001 (ip), vehicle: saline
[6] = dose: 400.0 mg/kg/injection, schedule: Q04DX003 (ip), vehicle: saline
[7] = dose: 50.0 mg/kg/injection, schedule: Q01DX009 (ip), vehicle: saline with Tween-80
[8] = dose: 100.0 mg/kg/injection, schedule: Q01DX009 (ip), vehicle: saline with Tween-80
[9] = dose: 100.0 mg/kg/injection, schedule: Q04DX003 (ip), vehicle: saline with Tween-80
[10] = dose: 200.0 mg/kg/injection, schedule: Q04DX003 (ip), vehicle: saline with Tween-80
[11] = dose: 100.0 mg/kg/injection, schedule: Q01DX001 (ip), vehicle: saline with Tween-80
[12] = dose: 200.0 mg/kg/injection, schedule: Q01DX001 (ip), vehicle: saline with Tween-80
[13] = dose: 400.0 mg/kg/injection, schedule: Q01DX001 (ip), vehicle: saline with Tween-80
[14] = dose: 200.0 mg/kg/injection, schedule: Q01DX009 (ip), vehicle: saline with Tween-80
[15] = dose: 400.0 mg/kg/injection, schedule: Q01DX009 (ip), vehicle: saline with Tween-80
[16] = dose: 25.0 mg/kg/injection, schedule: Q01DX009 (ip), vehicle: saline with Tween-80
[17] = dose: 400.0 mg/kg/injection, schedule: Q04DX003 (ip), vehicle: saline with Tween-80
[18] = dose: 100.0 mg/kg/injection, schedule: Q04DX002 (ip), vehicle: saline with Tween-80
[19] = dose: 100.0 mg/kg/injection, schedule: Q01DX001 (ip), vehicle: Klucel (hydroxypropylcellulose) (HPC)
[20] = dose: 200.0 mg/kg/injection, schedule: Q01DX001 (ip), vehicle: Klucel (hydroxypropylcellulose) (HPC)
[21] = dose: 400.0 mg/kg/injection, schedule: Q01DX001 (ip), vehicle: Klucel (hydroxypropylcellulose) (HPC)

Measured: T/C

CC1COS(=O)O1 (stereo unspecified)
inactive: dose: 10.0 mg/kg/injection, schedule: Q01DX009 (ip), vehicle: saline with Tween-80 96 % of control | dose: 10.0 mg/kg/injection, schedule: Q04DX003 (ip), vehicle: saline 103 % of control | dose: 20.0 mg/kg/injection, schedule: Q01DX009 (ip), vehicle: saline with Tween-80 101 % of control | dose: 20.0 mg/kg/injection, schedule: Q04DX003 (ip), vehicle: saline 97 % of control | dose: 40.0 mg/kg/injection, schedule: Q01DX009 (ip), vehicle: saline with Tween-80 109 % of control | dose: 40.0 mg/kg/injection, schedule: Q04DX003 (ip), vehicle: saline 101 % of control

Cc1ccc(S(=O)(=O)/C=C/c2ccccc2)cc1
inactive: [1] 103 % of control | [2] 96 % of control | [3] 108 % of control | [4] 93 % of control | [5] 100 % of control | [6] 87 % of control

O=C(O)Cc1ccccc1C(=O)O.[Pb]
inactive: [7] 102 % of control | [8] 102 % of control | [9] 93 % of control | [10] 98 % of control

CCCCCCCCCCCCCCCCOc1ccc(NS(=O)(=O)c2ccc(NC(C)=O)cc2)cc1
inactive: [11] 96 % of control | dose: 100.0 mg/kg/injection, schedule: Q01DX009 (ip), vehicle: Klucel (hydroxypropylcellulose) (HPC) 109 % of control | [12] 91 % of control | dose: 200.0 mg/kg/injection, schedule: Q01DX009 (ip), vehicle: Klucel (hydroxypropylcellulose) (HPC) 103 % of control | [13] 93 % of control | dose: 400.0 mg/kg/injection, schedule: Q01DX009 (ip), vehicle: Klucel (hydroxypropylcellulose) (HPC) 98 % of control

Cc1ccc(NC(=S)Nc2ccc(C)cc2)cc1
inactive: [8] 89 % of control | [14] 91 % of control | [15] 93 % of control

BrCC[n+]1ccc(-c2cc[n+](CCBr)cc2)cc1
inactive: dose: 10.0 mg/kg/injection, schedule: Q01DX001 (ip), vehicle: Klucel (hydroxypropylcellulose) (HPC) 110 % of control | dose: 20.0 mg/kg/injection, schedule: Q01DX001 (ip), vehicle: Klucel (hydroxypropylcellulose) (HPC) 93 % of control | dose: 40.0 mg/kg/injection, schedule: Q01DX001 (ip), vehicle: Klucel (hydroxypropylcellulose) (HPC) 98 % of control

Cc1csc2ncnc(N)c12
inactive: [11] 100 % of control | [12] 92 % of control | [13] 101 % of control

C#CC(C)(C)OCC(CCl)OC(N)=O (stereo unspecified)
inactive: [16] 97 % of control | [7] 97 % of control | [8] 100 % of control | [14] 102 % of control

COc1cc(-c2cc(OC)c(O)c(OC)c2)cc(OC)c1O
inactive: [11] 96 % of control | [12] 101 % of control | [13] 90 % of control

N#Cc1ccc(NC=O)cc1
inactive: dose: 100.0 mg/kg/injection, schedule: Q04DX003 (ip), vehicle: Klucel (hydroxypropylcellulose) (HPC) 98 % of control | dose: 200.0 mg/kg/injection, schedule: Q04DX003 (ip), vehicle: Klucel (hydroxypropylcellulose) (HPC) 98 % of control | dose: 400.0 mg/kg/injection, schedule: Q04DX003 (ip), vehicle: Klucel (hydroxypropylcellulose) (HPC) 102 % of control

COc1ccc([I+]c2ccccc2)cc1
inactive: dose: 2.5 mg/kg/injection, schedule: Q01DX009 (ip), vehicle: saline sonified 102 % of control | dose: 2.5 mg/kg/injection, schedule: Q04DX003 (ip), vehicle: saline with Tween-80 106 % of control | dose: 5.0 mg/kg/injection, schedule: Q01DX009 (ip), vehicle: saline sonified 106 % of control | dose: 5.0 mg/kg/injection, schedule: Q04DX003 (ip), vehicle: saline with Tween-80 98 % of control | dose: 6.25 mg/kg/injection, schedule: Q01DX009 (ip), vehicle: saline with Tween-80 95 % of control | dose: 6.25 mg/kg/injection, schedule: Q04DX003 (ip), vehicle: saline with Tween-80 93 % of control | dose: 10.0 mg/kg/injection, schedule: Q01DX009 (ip), vehicle: saline sonified 95 % of control | dose: 10.0 mg/kg/injection, schedule: Q04DX003 (ip), vehicle: saline with Tween-80 104 % of control | dose: 12.5 mg/kg/injection, schedule: Q01DX009 (ip), vehicle: saline with Tween-80 118 % of control | dose: 12.5 mg/kg/injection, schedule: Q04DX003 (ip), vehicle: saline with Tween-80 92 % of control | [16] 120 % of control | dose: 25.0 mg/kg/injection, schedule: Q04DX003 (ip), vehicle: saline with Tween-80 104 % of control

CC(C)(C)OC(=O)NC(=O)CCC(N)C(=O)O (stereo unspecified)
inactive: [9] 94 % of control | [10] 91 % of control | [17] 92 % of control

COc1ccc(NC(C)=O)c(O)c1OC
inactive: [11] 95 % of control | [18] 103 % of control | [12] 92 % of control | dose: 200.0 mg/kg/injection, schedule: Q04DX002 (ip), vehicle: saline with Tween-80 106 % of control | [13] 95 % of control | dose: 400.0 mg/kg/injection, schedule: Q04DX002 (ip), vehicle: saline with Tween-80 98 % of control

CC(=O)NCC(C)OC(C)=O (stereo unspecified)
inactive: [2] 101 % of control | [4] 97 % of control | [6] 98 % of control

O=C1OC(c2ccccc2)=N/C1=C\c1cccc(O)c1
inactive: [8] 104 % of control | [14] 109 % of control | [15] 98 % of control

COC(=N)CC(=O)C(C)(C)C
inactive: dose: 100.0 mg/kg/injection, schedule: Q01DX001 (ip), vehicle: other 102 % of control | dose: 200.0 mg/kg/injection, schedule: Q01DX001 (ip), vehicle: other 97 % of control | dose: 400.0 mg/kg/injection, schedule: Q01DX001 (ip), vehicle: other 97 % of control

CC(=O)Oc1cccc2c1C(=O)c1c(OC(C)=O)cc(C)cc1C2=O
inactive: [1] 101 % of control | [3] 101 % of control | [5] 98 % of control

CC(CC(=O)O)c1ccc(Cl)cc1 (stereo unspecified)
inactive: [9] 101 % of control | [10] 101 % of control | [17] 101 % of control

Nc1cccc2ccc(O)cc12
inactive: [19] 96 % of control | [20] 86 % of control | [21] 104 % of control

O=[N+]([O-])C1=C(c2ccccc2)SC=C(c2ccccc2)S1
inactive: [11] 87 % of control | [12] 97 % of control | [13] 105 % of control

CCCc1cc(CCC)n2nc(N)nc2n1
inactive: [9] 96 % of control | [10] 94 % of control | [17] 94 % of control

O=P(CP(c1ccccc1)c1ccccc1)(c1ccccc1)c1ccccc1
inactive: dose: 25.0 mg/kg/injection, schedule: Q04DX002 (ip), vehicle: saline with Tween-80 96 % of control | dose: 50.0 mg/kg/injection, schedule: Q04DX002 (ip), vehicle: saline with Tween-80 92 % of control | [18] 92 % of control

CC(=O)/C=C\c1cc(C)ccc1O
inactive: [19] 95 % of control | [20] 103 % of control | [21] 100 % of control

COC(=O)C(C(=O)OC(C)C)C(=O)OC(C)C
inactive: dose: 50.0 mg/kg/injection, schedule: Q01DX001 (ip), vehicle: Klucel (hydroxypropylcellulose) (HPC) 105 % of control | [19] 96 % of control | [20] 99 % of control

C#CCOC1CCCCO1 (stereo unspecified)
inactive: dose: 25.0 mg/kg/injection, schedule: Q01DX009 (ip), vehicle: saline 102 % of control | dose: 50.0 mg/kg/injection, schedule: Q01DX009 (ip), vehicle: saline 108 % of control | dose: 100.0 mg/kg/injection, schedule: Q01DX009 (ip), vehicle: saline 106 % of control

O=S1(=O)OCCC1=C(c1ccccc1)c1ccccc1
inactive: dose: 75.0 mg/kg/injection, schedule: Q04DX003 (ip), vehicle: saline 95 % of control | dose: 150.0 mg/kg/injection, schedule: Q04DX003 (ip), vehicle: saline 97 % of control | dose: 300.0 mg/kg/injection, schedule: Q04DX003 (ip), vehicle: saline 91 % of control

— PubChem BioAssay AID256 (DTP/NCI, 2004)
